Columns and labels:
[1] = system: melanoma cells; conditions: mice having received cancer cells by intravenous injection; cited from earlier work
[2] = system: SiHa-F3 cells; experiment: Cell survival of SiHa-F3 tumor cells (crystal violet or MTT); format: cell-based, human; conditions: 1 μM
Protocol: Tests of cell migration and of survival of the treated cells were carried out with a model of super-invasive tumor cells obtained from a human cervical adenocarcinoma cell line, SiHa. The selection of the super-invasive SiHa-F3 cells (F3 on the graphs) was carried out after three consecutive invasions in vitro in permeable supports of Transwell® type coated with Matrigel® (Porporato P E et al., Cell Rep 2014, 8:754-766).
The cell survival, in order to exclude any toxic effect of the products tested, was estimated either on the basis of the quantification of the cells stained with crystal violet, or by measuring the mitochondrial succinate dehydrogenase (SDH) activity on the reduction of the MTT tetrazolium salt (suspension of formazan obtained in DMSO and measurement of absorbance at 570 nm).
Measurement of cell viability: 20 000 SiHa-F3 cells were seeded and treated with the indicated compounds overnight (16 h). The cells were then fixed for 3 min with methanol, stained with 0.23% crystal violet, and resuspended in DMSO in order to measure the absorbance at 595 nm (Victor X4 spectrophotometer, Perkin Elmer); or alternatively incubated for 3 h at 37° C. in a saturating solution of MTT in HBSS containing 10 mM of HEPES, and resuspended in DMSO in order to measure the absorbance at 630 nm (Victor X4 spectrophotometer, Perkin Elmer). […]

[3] = system: SiHa-F3 cells; experiment: Level of reactive oxygen species (ROSs), DCFDA technique; format: cell-based, human; conditions: 1 μM, 60 minutes of pretreatment
Protocol: Moreover, an evaluation of the impact of the products tested on the level of reactive oxygen species (ROSs) observed was carried out according to the DCFDA technique after 60 minutes of pretreatment of the SiHa-F3 metastatic progenitor cells with the products tested. Measurement of total cell ROSs: 20 000 SiHa-F3 cells were seeded before being treated for 1 h with the compounds indicated. The cells were then incubated for 30 min at 37° C. in a 1 μM solution of H2-DCFDA (Invitrogen) in HBSS containing 10 mM of HEPES, before measurement of the absorbance at 535 nm (Victor X4 spectrophotometer, Perkin Elmer).

[4] = compared with epigallocatechin-3-gallate (EGCG); cited from earlier work
[5] = system: SiHa-F3 cells; experiment: Tumor cell migration in a Boyden chamber; format: cell-based, human; conditions: for migration of the cancer cells (% of the control): Boyden chamber, 16 h, 100 nM to 1 mM
Protocol: Tests of cell migration and of survival of the treated cells were carried out with a model of super-invasive tumor cells obtained from a human cervical adenocarcinoma cell line, SiHa. The selection of the super-invasive SiHa-F3 cells (F3 on the graphs) was carried out after three consecutive invasions in vitro in permeable supports of Transwell® type coated with Matrigel® (Porporato P E et al., Cell Rep 2014, 8:754-766). […] The actual migration of the tumor cells was measured in a Boyden chamber with 50 000 cells per well and 0.15% of fetal bovine serum (FBS) used as chemoattractant. The pore diameters of the porous membrane separating the two compartments of the Boyden chamber were fixed at 8 μm. After 16 hours of migration, the cells were first fixed with methanol for 3 min and then stained with crystal violet. The culture medium used was DMEM 4.5 g/l of glucose, GlutaMAX®, 1% of a solution of penicillin/streptomycin and 10% of fetal bovine serum. Cell migration measurements: A 48-well reusable Boyden chamber (Neuroprobe) was used according to the manufacturer's instructions. Briefly, medium containing 0.15% of fetal bovine serum served as chemoattractant in the lower compartment, a polycarbonate membrane pierced with pores 8 μm in diameter separated the two compartments, and 50 000 SiHa-F3 cells in suspension in the presence of the indicated compounds were introduced into the upper compartment. The migration of the cells was quantified after an overnight period (16 h). The cells, having migrated, were fixed for 3 min in methanol, stained with 0.23% crystal violet for 30 min, and counted on photographs taken at a magnification of ×2.5 using an inverted-phase microscope (Axiovert and Mrc camera, Zeiss). […] Results were expressed as % of the control.

[6] = system: B16F10 murine melanoma cells; experiment: Model of experimental lung metastases: pretreated B16F10 cells injected into the caudal vein; format: in vivo, C57BL/6 mice; conditions: B16F10 cells pretreated with rotenone 10 nM + 10 μM compound, 14 days after injection
Source text: The B16F10 tumor cells come from the ATCC collection. The male 6- or 7-week-old C57BL/6 mice were acquired from the Janvier laboratories, and the protocols were applied with the agreement of the UCL ethics committee and while adhering to Belgian laws relating to animal care. Model of experimental metastases: the B16F10 cells were pretreated with DMSO (0.5%, rotenone carrier, negative control) or rotenone (respiratory chain complex I inhibitor and mitochondrial superoxide inducer as described in Porporato P E et al., Cell Rep 2014, 8:754-766, positive control), alone or in combination with the indicated compounds for 6 h. The cells were then detached, counted and resuspended in a proportion of 10×10^6 cells/ml in HBSS without calcium or magnesium. 10^6 cells (i.e. 100 μl of the suspension) were then injected into the caudal vein of C57BL/6 mice. 14 days after injection of the cells, the mice were sacrificed, the lungs were isolated and the metastases (spots positive for melanin) were counted under a dissection microscope.

| Structure (SMILES) | melanoma cell invasion [1] | survival of the tumor cells [2] | reduction in the level of reactive oxygen species (ROSs) produced by the cells [3] | anti-proliferative effect [4] | decrease in the number of tumor cells migrating from one compartment to the other of the Boyden cell ([5]; 1 μM, 16 hours of migration) | migration of the cancer cells (% of the control) [5] | formation of lung metastases [6] |
| --- | --- | --- | --- | --- | --- | --- | --- |
| Oc1cc(O)c2c(c1)O[C@H](c1ccc(O)c(O)c1)[C@@H](O)C2 [(+)-catechin] | inhibited | does not affect the survival of the tumor cells | no impact | negligible | does not however make it possible to significantly decrease | not the (+)-catechin, inhibit the migration of the cancer cells |  |
| O=C(O[C@@H]1Cc2c(O)cc(O)cc2O[C@@H]1c1cc(O)c(O)c(O)c1)c1cc(O)c(O)c(O)c1 [epigallocatechin gallate] |  |  |  |  |  | inhibit the migration of the cancer cells | not Epigallocatechin Gallate Reduces the Formation of Lung Metastases |

— US20180008572A1, “ANTIMETASTATIC COMPOSITION COMPRISING AT LEAST ONE FLAVANOL-TYPE COMPOUND” (priority 2014, published 2018)
